# Source: patent US20080076824A1, “Compounds That Inhibit Replication Of Human Immunodeficiency Virus” (priority 2004, published 2008)
# Where a name gives a salt, the structure may show the parent alone. Residues, ends and D or L forms follow the SMILES beside them.
# Assays:
# [1] = Cytotoxicity (CC50) in MT-4 cells; type: cell-based; conditions: human, MT-4 cells
# [2] = Conversion of [14C]G-NH2 by Phaseolus vulgaris root nodule extract; type: biochemical; conditions: overnight, 37° C.
# Experimental: An extract from Phaseolus vulgaris root nodule was prepared as follows: approximately 20 g of root nodules of 3-4 week old kidney beans (Phaseolus vulgaris) were removed, washed with potassium phosphate buffer 50 mM pH 8.0 and homogenized with 30 ml buffer. Then, the homogenate was sonicated (3×20 sec) on ice, and centrifuged for 15 min, 4° C. at 3,000 rpm. The supernatant was then centrifuged at 15,000 rpm during 20 min at 4° C., aliquoted and stored at −80° C. before use. To the reaction mixture (50 mM potassium phosphate buffer pH 8.0) was added: 0.1 μCi [^14C]G-NH2 and 50 μl extract supernatant (100%, 50% and 20%) and 50 μl buffer. The reaction proceeded overnight (˜18 hrs) at 37° C. Then, methanol was added (200 μl) to stop the reaction and the reaction mixture was subjected to cation exchange column chromatography, as described above. A reaction mixture containing bovine serum was also evaluated as a control.
# MT-4 cells = test: Cytotoxicity (CC50) in MT-4 cells; type: cell-based
# [3] = tested on: HIV-1 laboratory strains and clinical isolates; conditions: wide variety of HIV-1 laboratory strains and clinical isolates; cited from earlier work
compound,measurement,setting,value
"NC(=O)C(N)O (stereo not drawn) [AlphaHGA, α-Hydroxy-glycinamide hydrochloride]",CC50,[1],0.372 ± 0.107 mM
"NCC(N)=O [G-NH2, glycinamide]",conversion of glycinamide to modified glycinamide,[2],efficiently converts glycinamide to modified glycinamide
same,CC50,MT-4 cells,> 2 mM
same,CC50,CEM cells,> 2 mM
same,EC50,CEM cells,> 2 mM
same,no cytotoxicity at concentrations as high as,CEM cells,1500 to 2000 µM
"NCC(=O)N1CCC[C@H]1C(=O)NCC(N)=O [GPG-NH2, glycylprolylglycinamide] (H-Gly-Pro-Gly-NH2)",concentration range blocking HIV-1,[3],2 to 40 µM
